For orientation: IC50 means the concentration that inhibits the measured activity by half.

From ChEMBL document CHEMBL1629710, “Synthesis and biological evaluation of N-substituted-3,5-diphenyl-2-pyrazoline derivatives as cyclooxygenase (COX-2) inhibitors” (Eur J Med Chem, 2010) come the findings set out here.

Test [1] deals with T1, Prostaglandin G/H synthase 2 (Homo sapiens) (UniProt P35354).
T1 sequence (whole entry): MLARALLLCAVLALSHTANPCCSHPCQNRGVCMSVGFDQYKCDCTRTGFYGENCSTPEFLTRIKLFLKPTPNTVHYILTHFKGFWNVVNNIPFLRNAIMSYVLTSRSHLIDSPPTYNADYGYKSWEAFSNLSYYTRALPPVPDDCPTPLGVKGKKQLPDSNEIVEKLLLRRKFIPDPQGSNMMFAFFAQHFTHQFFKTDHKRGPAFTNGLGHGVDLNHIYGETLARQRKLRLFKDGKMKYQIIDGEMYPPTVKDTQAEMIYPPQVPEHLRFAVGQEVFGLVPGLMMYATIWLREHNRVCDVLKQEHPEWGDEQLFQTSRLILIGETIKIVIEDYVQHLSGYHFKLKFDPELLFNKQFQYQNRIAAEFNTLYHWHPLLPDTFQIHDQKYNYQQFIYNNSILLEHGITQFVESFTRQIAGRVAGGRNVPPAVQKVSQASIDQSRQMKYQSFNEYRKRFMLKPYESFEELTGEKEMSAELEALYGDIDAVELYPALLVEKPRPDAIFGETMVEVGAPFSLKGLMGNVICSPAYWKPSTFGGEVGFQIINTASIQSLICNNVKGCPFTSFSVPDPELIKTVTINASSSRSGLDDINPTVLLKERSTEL
As to the kind of experiment: Inhibition of human recombinant COX2 expressed in baculovirus infected SF21 cell at 25 uM.

For test [2], the target named is Prostaglandin G/H synthase 1 (Homo sapiens) (UniProt P23219). Put plainly: Inhibition of human COX1 from platelet microsomes.
Test [3] addresses T2, Prostaglandin G/H synthase 2 (Homo sapiens, UniProt P35354).
T2 sequence (P35354 whole entry): T1 sequence (whole entry)
Put plainly: Inhibition of human recombinant COX2 expressed in baculovirus infected SF21 cell. The class given is cell-based.

Test [4] addresses T1, Prostaglandin G/H synthase 2 (Homo sapiens). Put plainly: Inhibition of human recombinant COX2 expressed in baculovirus infected SF21 cell at 100 uM.

Active and inactive are the calls of the source. The rule behind the calls is not given here.

Sequence of Prostaglandin G/H synthase 1 (Homo sapiens) (P23219 whole entry): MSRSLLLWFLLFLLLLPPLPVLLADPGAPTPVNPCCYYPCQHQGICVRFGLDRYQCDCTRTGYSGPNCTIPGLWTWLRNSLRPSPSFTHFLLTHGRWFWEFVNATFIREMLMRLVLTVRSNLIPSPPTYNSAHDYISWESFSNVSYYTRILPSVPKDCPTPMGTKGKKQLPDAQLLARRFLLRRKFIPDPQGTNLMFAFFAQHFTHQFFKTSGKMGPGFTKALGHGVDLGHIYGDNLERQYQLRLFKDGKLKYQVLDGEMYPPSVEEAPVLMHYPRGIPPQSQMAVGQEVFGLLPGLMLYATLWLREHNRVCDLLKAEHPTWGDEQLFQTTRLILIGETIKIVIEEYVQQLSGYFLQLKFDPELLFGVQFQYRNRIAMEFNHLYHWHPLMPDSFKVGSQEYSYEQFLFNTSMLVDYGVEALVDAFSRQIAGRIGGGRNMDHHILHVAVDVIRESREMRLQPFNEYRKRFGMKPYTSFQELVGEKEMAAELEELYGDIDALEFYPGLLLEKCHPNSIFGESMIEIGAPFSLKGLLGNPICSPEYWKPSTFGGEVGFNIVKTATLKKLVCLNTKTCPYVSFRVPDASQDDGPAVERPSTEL

Turning to `COc1ccc(C2CC(c3ccc(S(C)(=O)=O)cc3)=NN2C(N)=S)cc1` (stereo unspecified), the inhibition result in test [1] and in test [2] was “inactive” each time.

In the case of `CC(=O)N1N=C(c2ccc(S(C)(=O)=O)cc2)CC1c1ccc(Cl)cc1` (stereo unspecified), the IC50 in test [3] stood at 21.7 µM. In addition, the inhibition entry in test [2] was “inactive”.

Turning to `CS(=O)(=O)c1ccc(C2=NN(C(N)=S)C(c3ccc(C(F)(F)F)cc3)C2)cc1` (stereo unspecified), the inhibition entry in test [1] and in test [2] was “inactive” each time.

As to `CS(=O)(=O)c1ccc(C2=NN(C(N)=S)C(c3ccc(Cl)cc3)C2)cc1` (stereo unspecified), in test [3], the IC50 turned out to be 9.35 µM. Moreover, the inhibition result in test [2] was “inactive”.

In the case of `CC(=O)N1N=C(c2ccc(S(C)(=O)=O)cc2)CC1c1ccc(F)cc1` (stereo unspecified), the IC50 in test [3] came to 19.6 µM. In addition, the inhibition entry in test [2] was “inactive”.

As for `CC(=O)N1N=C(c2ccc(S(C)(=O)=O)cc2)CC1c1cccc(OCc2ccccc2)c1` (stereo unspecified), the inhibition result in test [4] and in test [2] was “inactive” each time.

As for `CS(=O)(=O)c1ccc(C2=NN(C(N)=S)C(c3cccc(OCc4ccccc4)c3)C2)cc1` (stereo unspecified), the inhibition result in test [1] and in test [2] was “inactive” each time.

On to `CC(=O)N1N=C(c2ccc(S(C)(=O)=O)cc2)CC1c1ccc(OCc2ccccc2)cc1` (stereo unspecified), for which the inhibition result in test [4] and in test [2] was “inactive” each time.

Regarding `CC(=O)N1N=C(c2ccc(S(C)(=O)=O)cc2)CC1c1ccc(C)cc1` (stereo unspecified), the IC50 in test [3] was determined as 6.77 µM. The inhibition entry in test [2] was “inactive”.

Consider `CC(=O)N1N=C(c2ccc(S(C)(=O)=O)cc2)CC1c1ccccc1` (stereo unspecified), for which the inhibition entry in test [4] and in test [2] was “inactive” each time.

Consider `Cc1ccc(C2CC(c3ccc(S(C)(=O)=O)cc3)=NN2C(N)=S)cc1` (stereo unspecified), for which, in test [3], the IC50 was determined as 31.9 µM. The inhibition entry in test [2] was “inactive”.

On to `CS(=O)(=O)c1ccc(C2=NN(C(N)=S)C(c3ccc(F)cc3)C2)cc1` (stereo unspecified), for which the inhibition result in test [4] and in test [2] was “inactive” each time.

As for `CC(=O)N1N=C(c2ccc(S(C)(=O)=O)cc2)CC1c1ccccc1OCc1ccccc1` (stereo unspecified), in test [3], the IC50 amounted to 3.2 µM. Further, in test [2], the inhibition result was “inactive”.

For `CS(=O)(=O)c1ccc(C2=NN(C(N)=S)C(c3ccc(OCc4ccccc4)cc3)C2)cc1` (stereo unspecified), the inhibition entry in test [1] and in test [2] was “inactive” each time.

As for `CS(=O)(=O)c1ccc(C2=NN(C(N)=S)C(c3ccccc3OCc3ccccc3)C2)cc1` (stereo unspecified), the inhibition result in test [1] and in test [2] was “inactive” in each case.

As to `COc1ccc(C2CC(c3ccc(S(C)(=O)=O)cc3)=NN2C(C)=O)cc1` (stereo unspecified), the IC50 in test [3] was 7.61 µM. Moreover, the inhibition entry in test [2] was “inactive”.

With `CC(=O)N1N=C(c2ccc(S(C)(=O)=O)cc2)CC1c1ccc(C(F)(F)F)cc1` (stereo unspecified), the IC50 in test [3] was determined as 19.8 µM. The inhibition result in test [2] is “inactive”.

Turning to `CS(=O)(=O)c1ccc(C2=NN(C(N)=S)C(c3ccccc3)C2)cc1` (stereo unspecified), the IC50 in test [3] amounted to 50.3 µM. Moreover, the inhibition entry in test [2] is “inactive”.
